Patent publication US4820695A, “C-20-dihydro-deoxy-(cyclic amino)-derivatives of macrolide antibiotics” (priority 1987, dated 1989)
Values after ≈ are worked out from the molar mass of the structure shown. Like-named read-outs stand apart in the source and are kept apart here.

Key:
Escherichia coli EC14 = assay: MIC, standard agar-dilution assay (Table IX); type: cell-based
Mycoplasma hyorhinis 29E = assay: MIC, broth-dilution microtiter test (Table X); type: cell-based
Description: (§1) The MIC's in Table X were obtained using conventional broth-dilution microtiter tests.

[1] = test system: Mycoplasma gallisepticum 29C; assay: MIC, broth-dilution microtiter test (Table X); type: cell-based
Description: as §1

Streptococcus sp. 19F = assay: MIC, broth-dilution microtiter test (Table X); type: cell-based
Description: as §1

[2] = test system: Pasteurella hemolytica 22C; assay: MIC, broth-dilution microtiter test (Table X); type: cell-based
Description: as §1

[3] = test system: Mycoplasma hyopneumoniae S5972; assay: MIC, broth-dilution microtiter test (Table X); type: cell-based
Description: as §1

Staphylococcus aureus = assay: MIC, broth-dilution microtiter test (Table X); type: cell-based
Description: as §1

[4] = test system: Pasteurella multocida 60A; assay: MIC, broth-dilution microtiter test (Table X); type: cell-based; settings: Avian isolate
Description: as §1

[5] = test system: Pasteurella multocida 17E; assay: MIC, broth-dilution microtiter test (Table X); type: cell-based; settings: Bovine isolate
Description: as §1

Mycoplasma synoviae 40A = assay: MIC, broth-dilution microtiter test (Table X); type: cell-based
Description: as §1

Escherichia coli TEM = assay: MIC, standard agar-dilution assay (Table IX); type: cell-based
[6] = test system: Staphylococcus aureus V41; assay: MIC, standard agar-dilution assay (Table IX); type: cell-based; settings: Staphylococcus aureus V41, Penicillin-resistant strain
Pasteurella multocida [7] = assay: Pasteurella infection in one-day-old chicks, subcutaneous administration (Table XII); type: in vivo; settings: Administered subcutaneously, 30 mg/kg × 2, 1 and 4 hours post-challenge
Procedure, shortened: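 Treatment was 30 mg/kg s.c., given twice (1 and 4 h after infection). The infection itself was induced in day-old chicks by s.c. injection of 0.1 ml of avian Pasteurella multocida culture (20-h tryptose broth, diluted 10^-4).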

[8] = test system: Streptococcus pneumoniae Park I; assay: MIC, standard agar-dilution assay (Table IX); type: cell-based; settings: Streptococcus pneumoniae Park I, agar-dilution
[9] = test system: Staphylococcus epidermidis 222; assay: MIC, standard agar-dilution assay (Table IX); type: cell-based
Staphyloccus aureus X1.1 = assay: MIC, standard agar-dilution assay (Table IX); type: cell-based, Staphylococcus aureus
[10] = test system: Streptococcus Group D X66; assay: MIC, standard agar-dilution assay (Table IX); type: cell-based
[11] = test system: Streptococcus Group D 2041; assay: MIC, standard agar-dilution assay (Table IX); type: cell-based
Klebsiella X26 = assay: MIC, standard agar-dilution assay (Table IX); type: cell-based
[12] = test system: Streptococcus pyogenes C203; assay: ED50 in mice experimentally infected with S. pyogenes C203 (Table XI); type: in vivo; settings: Streptococcus pyogenes, doses given 1 and 4 hours postinfection, read-out: ED50
Procedure, shortened: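 Protective ED50 (mg/kg × 2) was determined as the dose sparing half the animals. Test compound was given twice, at 1 and 4 hours after experimental S. pyogenes C203 infection of mice.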

[13] = test system: Haemophilus influenzae 76; assay: MIC, standard agar-dilution assay (Table IX); type: cell-based; settings: Haemophilus influenzae 76, Ampicillin-resistant strain
[14] = test system: Streptococcus pyogenes C203; assay: MIC, standard agar-dilution assay (Table IX); type: cell-based
[15] = test system: Haemophilus influenzae C.L.; assay: MIC, standard agar-dilution assay (Table IX); type: cell-based; settings: Ampicillin-sensitive strain
Pasteurella multocida [16] = assay: Pasteurella infection in one-day-old chicks, medicated drinking water (Table XIII); type: in vivo; settings: Administered in the available drinking water at 2 g/gal
Description: Many of the C-20 modified derivatives of this invention have also shown in vivo antibacterial activity against infections induced by gram-negative bacteria. Tables XII and XIII summarize the results of tests in which illustrative compounds were evaluated against a Pasteurella infection in one-day-old chicks. The compounds were administered parenterally or orally after challenge of the chicks with Pasteurella multocida (0.1 ml of a 10^-4 dilution of a twenty-hour tryptose broth culture of an avian P. multocida given subcutaneously). In these tests, unless indicated otherwise, all non-medicated infected chicks died within 24 hours of Pasteurella challenge. In the tests summarized in Table XII, the compounds were administered by subcutaneous injection at a dosage of 30 mg/kg, 1 and 4 hours post-challenge of the chicks with P. multocida. In the tests summarized in Table XIII the compounds were administered in medicated drinking water (at a level of 2 g/gal) available from 4 to 20 hours prior to challenge of the chicks with P. multocida and during the 3 -day test period.
^a Administered in the available drinking water at a concentration of […]

[17] = test system: Staphylococcus epidermidis EPI1; assay: MIC, standard agar-dilution assay (Table IX); type: cell-based; settings: Staphylococcus epidermidis EPI1, agar-dilution
[18] = test system: Staphylococcus aureus S13E; assay: MIC, standard agar-dilution assay (Table IX); type: cell-based
Escherichia coli N10 = assay: MIC, standard agar-dilution assay (Table IX); type: cell-based
[19] = test system: Staphylococcus aureus X400; assay: MIC, standard agar-dilution assay (Table IX); type: cell-based; settings: Staphylococcus aureus X400, Methicillin-resistant strain
[20] = Titratable groups in 66% aqueous DMF (Tables XIV-XVI); type: physicochemical
Description: ^c Run in 66% aqueous DMF
^d Run in 66% aqueous DMF

CCC1OC(=O)CC(O)C(C)C(OC2OC(C)C(O)C(N(C)C)C2O)C(CCN2CCC3(CC2)OCCO3)CC(C)C(=O)C=CC(C)=CC1COC1OC(C)C(O)C(OC)C1OC (stereo not shown) [Compound D28, 20-DH-DO-20-[4-(ethylenedioxy)piperidin-1-yl]desmycosin]
MIC (Escherichia coli EC14; read-out: MIC): > 128 µg/mL
MIC (Mycoplasma hyorhinis 29E; read-out: MIC): 25 µg/mL (≈ 27.8 µM)
MIC ([1]; Mycoplasmoides gallisepticum, read-out: MIC): 0.097 µg/mL (≈ 0.108 µM)
MIC (Streptococcus sp. 19F; read-out: MIC): 3.12 µg/mL (≈ 3.47 µM)
MIC ([2]; read-out: MIC): 25 µg/mL (≈ 27.8 µM)
MIC ([3]; Mesomycoplasma hyopneumoniae, read-out: MIC): 1.56 µg/mL (≈ 1.74 µM)
MIC (Staphylococcus aureus; read-out: MIC): 3.12 µg/mL (≈ 3.47 µM)
MIC ([4]; read-out: MIC): 25 µg/mL (≈ 27.8 µM)
MIC ([5]; read-out: MIC): 6.25 µg/mL (≈ 6.95 µM)
MIC (Mycoplasma synoviae 40A; Mycoplasmopsis synoviae, read-out: MIC): 0.195 µg/mL (≈ 0.217 µM)
MIC (Escherichia coli TEM; read-out: MIC): 64 µg/mL (≈ 71.2 µM)
MIC ([6]; read-out: MIC): 2 µg/mL (≈ 2.22 µM)
Number of Deaths/Number Treated (Pasteurella multocida [7]): 0/10
MIC ([8]; read-out: MIC): 2 µg/mL (≈ 2.22 µM)
MIC ([9]; read-out: MIC): 1 µg/mL (≈ 1.11 µM)
MIC (Staphyloccus aureus X1.1; Staphylococcus aureus, read-out: MIC): 2 µg/mL (≈ 2.22 µM)
MIC ([10]; read-out: MIC): 8 µg/mL (≈ 8.9 µM)
MIC ([11]; GROUPD2041, read-out: MIC): 8 µg/mL (≈ 8.9 µM)
MIC (Klebsiella X26; read-out: MIC): 64 µg/mL (≈ 71.2 µM)
ED50 ([12]; C203, Oral): 77 mg/kg
ED50 ([12]; C203, sc, Subcutaneous): 0.75 mg/kg
MIC ([13]; read-out: MIC): 32 µg/mL (≈ 35.6 µM)
MIC ([14]; read-out: MIC): 0.5 µg/mL (≈ 0.556 µM)
MIC ([15]; read-out: MIC): 32 µg/mL (≈ 35.6 µM)
Number of Deaths/Number Treated (Pasteurella multocida [16]): 7/10
MIC ([17]; read-out: MIC): 2 µg/mL (≈ 2.22 µM)
MIC ([18]; Staphylococcus aureus, S13E): 2 µg/mL (≈ 2.22 µM)
MIC (Escherichia coli N10; read-out: MIC): > 128 µg/mL
MIC ([19]; read-out: MIC): 4 µg/mL (≈ 4.45 µM)

CCC1OC(=O)CC(O)C(C)C(OC2OC(C)C(O)C(N(C)C)C2O)C(CCN2CCC(C)CC(C)(C)C2)CC(C)C(=O)C=CC(C)=CC1COC1OC(C)C(O)C(OC)C1OC (single isomer, unassigned) [Compound D23, 20-DH-DO-20-(3,3,5-Trimethylhexahydroazepin-1-yl)desmycosin]
MIC (Escherichia coli EC14): 64 µg/mL (≈ 71.3 µM)
MIC (Mycoplasma hyorhinis 29E): 6.25 µg/mL (≈ 6.97 µM)
MIC [1]: 0.097 µg/mL (≈ 0.108 µM)
MIC (Streptococcus sp. 19F): 1.56 µg/mL (≈ 1.74 µM)
MIC [2]: 3.12 µg/mL (≈ 3.48 µM)
MIC [3]: 0.78 µg/mL (≈ 0.869 µM)
MIC (Staphylococcus aureus): 3.12 µg/mL (≈ 3.48 µM)
MIC [4]: 12.5 µg/mL (≈ 13.9 µM)
MIC [5]: 6.25 µg/mL (≈ 6.97 µM)
MIC (Mycoplasma synoviae 40A): 0.097 µg/mL (≈ 0.108 µM)
MIC (Escherichia coli TEM): 32 µg/mL (≈ 35.7 µM)
MIC [6]: 0.5 µg/mL (≈ 0.557 µM)
Number of Deaths/Number Treated (Pasteurella multocida [7]): 8/10
MIC [8]: 0.5 µg/mL (≈ 0.557 µM)
MIC [9]: 0.5 µg/mL (≈ 0.557 µM)
MIC (Staphyloccus aureus X1.1): 0.5 µg/mL (≈ 0.557 µM)
MIC [10]: 4 µg/mL (≈ 4.46 µM)
MIC [11]: 8 µg/mL (≈ 8.92 µM)
MIC (Klebsiella X26): 128 µg/mL (≈ 143 µM)
MIC [13]: 8 µg/mL (≈ 8.92 µM)
MIC [14]: 0.5 µg/mL (≈ 0.557 µM)
MIC [15]: 16 µg/mL (≈ 17.8 µM)
Titratable groups [20]: 9.0
Titratable groups (first value) [20]: 7.7
Number of Deaths/Number Treated (Pasteurella multocida [16]): 4/10
MIC [17]: 0.5 µg/mL (≈ 0.557 µM)
MIC ([18]; Staphylococcus aureus S13E, agar-dilution): 0.5 µg/mL (≈ 0.557 µM)
MIC (Escherichia coli N10): 64 µg/mL (≈ 71.3 µM)
MIC [19]: 1 µg/mL (≈ 1.11 µM)
